Reference: patent publication US7582610B2, “Melanocortin receptor templates, peptides and use thereof” (priority 2003, dated 2009)
Where a SMILES comes first, the peptide text is derived from it. Bridges are numbered along the chain shown (N, C = ends). [ ]: non-standard residue; d: D form. Nle = CCCC[C@H](N)C(=O)O; Dap = NC[C@H](N)C(=O)O

How the values were obtained:
mMC3R = mMC3R (Mus musculus, UniProt P33033); assay: Functional bioassay, CRE/β-galactosidase reporter in HEK-293 cells stably expressing mMC3R; details: for pharmacology in words at mMC3R: slight agonist = some stimulatory response at 100 μM, not enough to determine an EC50
Description: (§1) 5,000 to 15,000 post transfection cells were plated into 96 well Primera plates (Falcon) and incubated overnight. […] The assay media was aspirated and 50 μL of lysis buffer (250 mM Tris-HCl pH=8.0 and 0.1% Triton X-100) was added. The plates were stored at −80° overnight.
(§2) The plates containing the cell lysates were thawed the following day. Aliquots of 10 μL were taken from each well and transferred to another 96-well plate for relative protein determination. To the cell lysate plates, 40 μL phosphate-buffered saline with 0.5% BSA was added to each well. Subsequently, 150 μL substrate buffer (60 mM sodium phosphate, 1 mM MgCl2, 10 mM KCl, 5 mM β-mercaptoethanol, 200 mg/100 mL ONPG) was added to each well and the plates were incubated at 37°.
(§3) The sample absorbance, OD405, was measured using a 96 well plate reader (Molecular Devices). The relative protein was determined by adding 200 μL 1:5 dilution Bio Rad G250 protein dye:water to the 10 μL cell lysate sample taken previously, and the OD595 was measured on a 96 well plate reader (Molecular Devices). Data points were normalized both to the relative protein content and non-receptor dependent forskolin stimulation.
(§4) For data analysis, EC50 and pA2 values represent the mean of duplicate experiments performed in triplet, quadruplet or more independent experiments.

mMC4R = mMC4R (Mus musculus, UniProt P56450); assay: Functional bioassay, CRE/β-galactosidase reporter in HEK-293 cells stably expressing mMC4R; details: for pharmacology in words at mMC4R: slight agonist = some stimulatory response at 100 μM, not enough to determine an EC50
Description: as §1, §2, §3, §4

mMC5R = mMC5R (Mus musculus, UniProt P41149); assay: Functional bioassay, CRE/β-galactosidase reporter in HEK-293 cells stably expressing mMC5R
mMC5R, sequence (P41149 whole entry): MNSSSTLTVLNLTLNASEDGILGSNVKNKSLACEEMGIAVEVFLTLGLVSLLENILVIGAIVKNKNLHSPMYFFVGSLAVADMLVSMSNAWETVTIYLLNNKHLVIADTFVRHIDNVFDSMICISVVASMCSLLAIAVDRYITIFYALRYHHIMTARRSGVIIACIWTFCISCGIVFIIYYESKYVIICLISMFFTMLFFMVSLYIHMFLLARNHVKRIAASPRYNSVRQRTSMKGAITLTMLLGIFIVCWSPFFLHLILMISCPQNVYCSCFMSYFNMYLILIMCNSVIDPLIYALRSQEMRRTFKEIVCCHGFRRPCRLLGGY
Description: as §1, §2, §3, §4

mMC3R, sequence (P33033 whole entry): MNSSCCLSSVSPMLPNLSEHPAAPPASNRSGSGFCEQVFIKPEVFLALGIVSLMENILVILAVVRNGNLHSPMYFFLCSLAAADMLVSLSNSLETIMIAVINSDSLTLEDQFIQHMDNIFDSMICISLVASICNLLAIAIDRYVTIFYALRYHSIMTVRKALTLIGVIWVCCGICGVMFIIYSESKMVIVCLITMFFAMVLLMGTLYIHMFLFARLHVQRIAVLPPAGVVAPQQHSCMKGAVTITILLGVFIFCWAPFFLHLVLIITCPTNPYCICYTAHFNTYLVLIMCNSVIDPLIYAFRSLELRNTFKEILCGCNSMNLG
mMC4R, sequence (P56450 whole entry): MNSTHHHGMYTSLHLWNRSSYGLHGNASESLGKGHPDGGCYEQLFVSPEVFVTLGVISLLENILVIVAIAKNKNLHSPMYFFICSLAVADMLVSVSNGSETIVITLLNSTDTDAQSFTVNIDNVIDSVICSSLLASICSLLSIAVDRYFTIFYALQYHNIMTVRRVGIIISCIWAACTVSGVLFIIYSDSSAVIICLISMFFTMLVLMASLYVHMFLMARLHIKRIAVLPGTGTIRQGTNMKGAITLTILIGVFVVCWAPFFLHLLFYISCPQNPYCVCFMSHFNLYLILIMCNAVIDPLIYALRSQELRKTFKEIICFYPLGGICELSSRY

Row | pharmacology in words at mMC3R (mMC3R) | Kb (mMC4R) | pharmacology in words at mMC4R (mMC4R) | Kb (mMC3R) | SMILES | also measured
1 | Slight Agonist | 794 nM | Partial agonist | – | C[C@@H]1NC(=O)[C@H](CC(N)=O)NC(=O)[C@@H](Cc2ccccc2)NC(=O)[C@H](Cc2ccccc2)NC(=O)[C@H](CCCNC(=N)N)NC(=O)[C@@H](NC(=O)[C@@H](N)Cc2ccc(O)cc2)CSSC[C@@H](C(=O)N[C@@H](Cc2ccc(O)cc2)C(N)=O)NC(=O)[C@H](Cc2ccccc2)NC1=O [SEQ ID NO: 1, Tyr-c[Cys-Arg-Phe-DPhe-Asn-Ala-Phe-Cys]-Tyr] (H-YCRF[dF]NAFCY-NH2; disulfide 2-9) | EC50 (mMC3R): > 100000 nM
2 | – | – | Partial agonist | – | C[C@@H]1NC(=O)[C@H](CC(N)=O)NC(=O)[C@H](Cc2ccccc2)NC(=O)[C@H](CCCNC(=N)N)NC(=O)[C@H](Cc2c[nH]c3ccccc23)NC(=O)[C@@H](NC(=O)[C@@H](N)Cc2ccc(O)cc2)CC(=O)NC[C@@H](C(=O)N[C@@H](Cc2ccc(O)cc2)C(N)=O)NC(=O)[C@H](Cc2ccccc2)NC1=O [SEQ ID NO: 4, Tyr-c[Asp-Trp-Arg-Phe-Asn-AIa-Phe-Dpr]-Tyr] (H-YDWRFNAF[Dap]Y-NH2; lactam 2-9) | EC50 (mMC3R): > 100000 nM; EC50 (mMC5R): > 100000 nM
3 | Slight Agonist | – | – | – | C[C@@H]1NC(=O)[C@H](CC(N)=O)NC(=O)[C@@H](Cc2ccccc2)NC(=O)[C@H](CCCNC(=N)N)NC(=O)[C@H](Cc2c[nH]c3ccccc23)NC(=O)[C@@H](NC(=O)[C@@H](N)Cc2ccc(O)cc2)CC(=O)NC[C@@H](C(=O)N[C@@H](Cc2ccc(O)cc2)C(N)=O)NC(=O)[C@H](Cc2ccccc2)NC1=O [SEQ ID NO: 5, Tyr-c[Asp-Trp-Arg-DPhe-Asn-Ala-Phe-Dpr]-Tyr] (H-YDWR[dF]NAF[Dap]Y-NH2; lactam 2-9) | –
4 | Slight agonist | – | – | – | C[C@@H]1NC(=O)[C@H](CC(N)=O)NC(=O)[C@H](Cc2c[nH]c3ccccc23)NC(=O)[C@H](CCCNC(=N)N)NC(=O)[C@H](Cc2ccccc2)NC(=O)[C@@H](NC(=O)[C@@H](N)Cc2ccc(O)cc2)CC(=O)NC[C@@H](C(=O)N[C@@H](Cc2ccc(O)cc2)C(N)=O)NC(=O)[C@H](Cc2ccccc2)NC1=O [SEQ ID NO: 6, Tyr-c[Asp-Phe-Arg-Trp-Asn-Ala-Phe-Dpr]-Tyr] (H-YDFRWNAF[Dap]Y-NH2; lactam 2-9) | –
5 | – | 631 nM | – | 631 nM | CCCC[C@H](NC(=O)[C@H](CO)NC(=O)[C@H](Cc1ccc(O)cc1)NC(=O)[C@H](CO)NC(C)=O)C(=O)N[C@@H](Cc1ccc(O)cc1)C(=O)N[C@H]1CC(=O)NC[C@@H](C(=O)N[C@@H](Cc2ccc(O)cc2)C(=O)N[C@@H](CCCCN)C(=O)N2CCC[C@H]2C(=O)N[C@H](C(N)=O)C(C)C)NC(=O)[C@H](Cc2ccccc2)NC(=O)[C@H](C)NC(=O)[C@H](CC(N)=O)NC(=O)[C@H](Cc2ccccc2)NC(=O)[C@H](Cc2ccccc2)NC(=O)[C@H](CCCNC(=N)N)NC1=O [SEQ ID NO: 11, Ac-Ser-Tyr-Ser-Nle-Tyr-c[Asp-Arg-Phe-Phe-Asn-Ala-Phe-Dpr]-Tyr-Lys-Pro-Val] (Ac-SYS[Nle]YDRFFNAF[Dap]YKPV-NH2; lactam 6-13) | EC50 (mMC5R): > 100000 nM
6 | Partial agonist | – | – | – | C[C@@H]1NC(=O)[C@H](CC(N)=O)NC(=O)[C@H](Cc2c[nH]c3ccccc23)NC(=O)[C@H](CCCNC(=N)N)NC(=O)[C@H](C)NC(=O)[C@H](Cc2c[nH]cn2)NC(=O)[C@@H](NC(=O)[C@@H](N)Cc2ccc(O)cc2)CC(=O)NC[C@@H](C(=O)N[C@@H](Cc2ccc(O)cc2)C(N)=O)NC(=O)[C@H](Cc2ccccc2)NC1=O [SEQ ID NO: 25] | –
7 | Partial agonist | – | – | 63.1 nM | C[C@@H]1NC(=O)[C@H](CC(N)=O)NC(=O)[C@H](Cc2c[nH]c3ccccc23)NC(=O)[C@H](CCCNC(=N)N)NC(=O)[C@@H](Cc2ccccc2)NC(=O)[C@@H]2CCCN2C(=O)[C@@H](NC(=O)[C@@H](N)Cc2ccc(O)cc2)CC(=O)NC[C@@H](C(=O)N[C@@H](Cc2ccc(O)cc2)C(N)=O)NC(=O)[C@H](Cc2ccccc2)NC1=O [SEQ ID NO: 28, Tyr-c[Asp-Pro-DPhe-Arg-Trp-Asn-Ala-Phe-Dpr]-Tyr] (H-YDP[dF]RWNAF[Dap]Y-NH2; lactam 2-10) | –
8 | Partial agonist | – | – | 63.1 nM | C[C@@H]1NC(=O)[C@H](CC(N)=O)NC(=O)[C@H](Cc2c[nH]c3ccccc23)NC(=O)[C@H](CCCNC(=N)N)NC(=O)[C@@H](Cc2ccccc2)NC(=O)[C@H](Cc2ccccc2)NC(=O)[C@@H](NC(=O)[C@@H](N)Cc2ccc(O)cc2)CC(=O)NC[C@@H](C(=O)N[C@@H](Cc2ccc(O)cc2)C(N)=O)NC(=O)[C@H](Cc2ccccc2)NC1=O [SEQ ID NO: 29, Tyr-c[Asp-Phe-DPhe-Arg-Trp-Asn-Ala-Phe-Dpr]-Tyr] (H-YDF[dF]RWNAF[Dap]Y-NH2; lactam 2-10) | –
9 | – | 0.398 nM | Partial agonist | 1.26 nM | C[C@@H]1NC(=O)[C@H](CC(N)=O)NC(=O)[C@H](Cc2c[nH]c3ccccc23)NC(=O)[C@H](CCCNC(=N)N)NC(=O)[C@@H](Cc2ccc(I)cc2)NC(=O)[C@H](Cc2c[nH]cn2)NC(=O)[C@@H](NC(=O)[C@@H](N)Cc2ccc(O)cc2)CC(=O)NC[C@@H](C(=O)N[C@@H](Cc2ccc(O)cc2)C(N)=O)NC(=O)[C@H](Cc2ccccc2)NC1=O [SEQ ID NO: 32, Tyr-c[Asp-His-(pI)DPhe-Arg-Trp-Asn-Ala-Phe-Dpr]-Tyr] | –
10 | – | 0.501 nM | Partial agonist | 5.01 nM | C[C@@H]1NC(=O)[C@H](CC(N)=O)NC(=O)[C@H](Cc2c[nH]c3ccccc23)NC(=O)[C@H](CCCNC(=N)N)NC(=O)[C@@H](Cc2ccc3ccccc3c2)NC(=O)[C@H](Cc2c[nH]cn2)NC(=O)[C@@H](NC(=O)[C@@H](N)Cc2ccc(O)cc2)CC(=O)NC[C@@H](C(=O)N[C@@H](Cc2ccc(O)cc2)C(N)=O)NC(=O)[C@H](Cc2ccccc2)NC1=O [SEQ ID NO: 33, Tyr-c[Asp-His-DNal(2′)-Arg-Trp-Asn-Ala-Phe-Dpr]-Tyr] | –
11 | – | – | – | – | C[C@@H]1NC(=O)[C@H](CC(N)=O)NC(=O)[C@H](Cc2c[nH]c3ccccc23)NC(=O)[C@H](CCCNC(=N)N)NC(=O)[C@@H](Cc2cccc3ccccc23)NC(=O)[C@H](Cc2c[nH]cn2)NC(=O)[C@@H](NC(=O)[C@@H](N)Cc2ccc(O)cc2)CC(=O)NC[C@@H](C(=O)N[C@@H](Cc2ccc(O)cc2)C(N)=O)NC(=O)[C@H](Cc2ccccc2)NC1=O [SEQ ID NO: 34, Tyr-c[Asp-His-DNal(1′)-Arg-Trp-Asn-Ala-Phe-Dpr]-Tyr] | EC50 (mMC4R): 0.57 ± 0.08 nM
12 | – | – | – | – | C[C@@H]1NC(=O)[C@H](CC(N)=O)NC(=O)[C@H](Cc2c[nH]c3ccccc23)NC(=O)[C@H](CCCNC(=N)N)NC(=O)[C@@H](Cc2ccc(-c3ccccc3)cc2)NC(=O)[C@H](Cc2c[nH]cn2)NC(=O)[C@@H](NC(=O)[C@@H](N)Cc2ccc(O)cc2)CC(=O)NC[C@@H](C(=O)N[C@@H](Cc2ccc(O)cc2)C(N)=O)NC(=O)[C@H](Cc2ccccc2)NC1=O [SEQ ID NO: 35, Tyr-c[Asp-His-DBip-Arg-Trp-Asn-Ala-Phe-Dpr]-Tyr] | EC50 (mMC4R): 0.57 ± 0.07 nM

Row | SMILES | pharmacology in words at mMC3R (mMC3R) | Kb (mMC4R) | pharmacology in words at mMC4R (mMC4R) | Kb (mMC3R) | also measured
13 | C[C@@H]1NC(=O)[C@H](CC(N)=O)NC(=O)[C@H](Cc2ccccc2)NC(=O)[C@H](Cc2ccccc2)NC(=O)[C@H](CCCNC(=N)N)NC(=O)[C@@H](NC(=O)[C@@H](N)Cc2ccc(O)cc2)CC(=O)NC[C@@H](C(=O)N[C@@H](Cc2ccc(O)cc2)C(N)=O)NC(=O)[C@H](Cc2ccccc2)NC1=O [SEQ ID NO: 3, Tyr-c[Asp-Arg-Phe-Phe-Asn-Ala-Phe-Dpr]-Tyr] | – | 1260 nM | – | 2000 nM | decrease in antagonist potency at mMC4R (mMC4R; compared with hAGRP(109-118)): 8 fold; EC50 (mMC5R): > 100000 nM
